From PubChem BioAssay (NCI)
Several values for one entry are separate records, joined by “and”; a condition that tells them apart may be missing. Equal entries are not always repeated.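 1) Cells in 96-well plates. 2) Compound, 48 h, 5 concentrations. 3) Linear interpolation between surrounding doses. 4) Unreached endpoint = highest concentration. GI50: concentration for 50% inhibition of growth. At the TGI there is no net growth.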

How the values were obtained:
Test in all cases: growth of human tumour cells (NCI), 48 h
NCI-H23 lung = tested on: NCI-H23 lung
SR leukemia = tested on: SR leukemia
NCI-H460 lung = tested on: NCI-H460 lung
SW-620 colon = tested on: SW-620 colon
OVCAR-8 ovarian = tested on: OVCAR-8 ovarian
IGROV1 ovarian = tested on: IGROV1 ovarian
A498 renal = tested on: A498 renal
UACC-62 melanoma = tested on: UACC-62 melanoma
BT-549 breast = tested on: BT-549 breast
MDA-MB-435 = tested on: MDA-MB-435

SMILES	TGI (NCI-H23 lung)	TGI (SR leukemia)	TGI (NCI-H460 lung)	TGI (SW-620 colon)	TGI (OVCAR-8 ovarian)	TGI (IGROV1 ovarian)	TGI (A498 renal) [µM]	TGI (UACC-62 melanoma)	TGI (BT-549 breast)	TGI (MDA-MB-435)	GI50 (SR leukemia) [µM]	GI50 (NCI-H460 lung) [µM]	GI50 (SW-620 colon) [µM]	GI50 (OVCAR-8 ovarian) [µM]	GI50 (A498 renal) [µM]
CCN(CC)/[N+]([O-])=N/OC	> 100 µM	> 100 µM	> 100 µM	> 100 µM	> 100 µM	> 100 µM	> 100	> 100 µM							
COc1cccc(/C=N/[N-]C(N)=O)c1[O-].[Cu+2].[OH3+].c1cnc2c(c1)ccc1cccnc12	15.8 µM	> 100 µM	79.9 µM	> 100 µM	31.9 µM	45.7 µM	21.8	22.3 µM							
CCOC(=O)C(Cc1ccc(OC(=O)c2ccc(OC)cc2OC)cc1)NC(=O)C(F)(F)F (stereo not given)	45.1 µM		> 100 µM	> 100 µM	51 µM	41.8 µM	31.6	30.5 µM	> 100 µM	34.9 µM					
COC1OC(C(=O)CP(=O)(OC)OC)C(OCc2ccccc2)C(OCc2ccccc2)C1OCc1ccccc1 (stereo not given)	30.3 µM and 32.9 µM	39.1 µM and 65.7 µM	31.1 µM and 29.4 µM	> 100 µM and 58 µM	36.8 µM and 44.5 µM	35.9 µM and 35.4 µM	27.1	26.6 µM and 28 µM	32 µM and 33.8 µM	31.8 µM and 35.9 µM					
O=CC(O)C(O)C(O)COc1cc(CO)cc2c1C(=O)c1ccccc1C2=O (stereo not given)	> 100 µM	> 100 µM	> 100 µM	> 100 µM	> 100 µM	> 100 µM	> 100	> 100 µM							
C/C(=C\CNc1ncnc2nc(Cl)[nH]c12)CO	> 100 µM	> 100 µM	> 100 µM	> 100 µM	> 100 µM	> 100 µM	> 100			> 100 µM					
CC(C)(C)OC(=O)N1C[C@H](CC(=O)OCc2ccccc2)C[C@H]1C(=O)OCC(Cl)(Cl)Cl	> 50 µM	15.7 µM	> 50 µM	> 50 µM	> 50 µM		25.9	> 50 µM	> 50 µM	> 50 µM					
C/C=C/C=C/C1=NN(c2cccc(S(=O)(=O)O)c2)C2(C1)C(Cl)C(=O)N2c1nc2ccccc2s1 (stereo not given)	32.1 µM	> 54.3 µM	31.6 µM	43.1 µM	> 54.8 µM	25.4 µM	31.8	26.2 µM	34 µM	26.6 µM					
CCOC(=O)C(C)OC(=O)c1ccc(C)cc1 (stereo not given)	> 100 µM	> 100 µM	> 100 µM	> 100 µM	> 100 µM	> 100 µM	> 100	> 100 µM							
O=c1oc2c(ccc3occc32)c(N2CCCCC2)c1-c1ccccc1	> 100 µM		> 100 µM	> 100 µM	> 100 µM	> 100 µM	> 100	> 100 µM							
CCOC(=O)c1c(Nc2ccccc2)sc2cccnc12	67.2 µM	59.6 µM	> 88.8 µM	> 100 µM	64 µM	47.4 µM	26.2	45.3 µM	58.8 µM	54.6 µM					
Cc1cc(N2CCOCC2)nc(N(CCCNc2ccnc3cc(Cl)ccc23)Cc2ccc3c(c2)OCO3)n1		0.593 µM	2.99 µM	3.05 µM	4.09 µM		3.42				0.186	1.45	1.44	1.85	1.51
CC(C)c1ccc2c(c1)[C@@]1(C)CC[C@H](C)C(C)(C)C1CC2 (stereo not given in full)	35.6 µM	67.5 µM	36.9 µM	> 100 µM	33.1 µM	> 100 µM	34.9	29.9 µM	35 µM	31.3 µM					
CC1=NN(c2cccc(Cl)c2)C(=N/c2nc3ccccc3s2)/C1=C\C=C\c1ccccc1	> 100 µM	25.9 µM	> 100 µM	> 100 µM	> 100 µM	82.8 µM	75.5			> 100 µM					
NC(N)=NS(=O)(=O)c1ccc(Nc2c3ccccc3nc3c(C(=O)N4CCN(CCO)CC4)ccc(Cl)c23)cc1	> 100 µM		> 100 µM		> 100 µM	> 100 µM	> 100	> 100 µM							
CCOC(=O)C(=CNC(Cc1c[nH]c2ccccc12)C(=O)OC)C(=O)OCC (stereo not given)	> 100 µM		> 100 µM	> 100 µM	> 100 µM	> 100 µM	> 100	> 100 µM							
O=C(CSc1nc2ccc(Cl)cc2c(=O)n1-c1ccccc1)N=Nc1c(O)[nH]c2ccc(F)cc12	7.57 µM		9.77 µM	5.43 µM	3.33 µM	4.39 µM	9.8	7.1 µM	4.11 µM	5.69 µM					
COC(=N)C(C)C	> 100 µM	> 100 µM	> 100 µM	> 100 µM		> 100 µM		> 100 µM							
CC(C)=CCC/C(C)=C/CC/C(C)=C/[C@@H]1[C@@H](CO)[C@]1(C)CC/C=C(\C)CCC=C(C)C	> 100 µM	55 µM	> 100 µM	66.9 µM	32.7 µM	27.5 µM	> 100		> 100 µM	> 100 µM					
CC(C)(C)c1ccc(O)c(Br)c1	> 100 µM	> 100 µM	> 100 µM	> 100 µM	> 100 µM	> 100 µM	> 100	> 100 µM	> 100 µM	> 100 µM					
COC(=O)c1c(O)ccc2c1c1c(n2Cc2ccccn2)C(=O)c2ccccc2C1	> 100 µM	> 100 µM	> 100 µM	> 100 µM	> 100 µM	> 100 µM	> 100	> 100 µM	> 100 µM	> 100 µM					
